# Calls of active or inactive are those of the source.
# What was measured:
# [1] = molecular target: Lysine-specific demethylase 4C (Homo sapiens, UniProt Q9H3R0); experiment: inhibition of JMJD2C H3K9me3 demethylation – biochemical, DELFIA europium, cherry-picked samples, dose response (AID 488835); assay type: functional
# Aminopeptidase N = molecular target: T1, Aminopeptidase N (Plasmodium falciparum FcB1/Columbia, UniProt O96935); experiment: malaria alanyl aminopeptidase activity blockers – biochemical, fluorogenic H-Leu-NHMec substrate, 1536-well (AID 1445); parameters: species or system Plasmodium falciparum 3D7, 3D7
# T1 sequence (O96935 whole entry): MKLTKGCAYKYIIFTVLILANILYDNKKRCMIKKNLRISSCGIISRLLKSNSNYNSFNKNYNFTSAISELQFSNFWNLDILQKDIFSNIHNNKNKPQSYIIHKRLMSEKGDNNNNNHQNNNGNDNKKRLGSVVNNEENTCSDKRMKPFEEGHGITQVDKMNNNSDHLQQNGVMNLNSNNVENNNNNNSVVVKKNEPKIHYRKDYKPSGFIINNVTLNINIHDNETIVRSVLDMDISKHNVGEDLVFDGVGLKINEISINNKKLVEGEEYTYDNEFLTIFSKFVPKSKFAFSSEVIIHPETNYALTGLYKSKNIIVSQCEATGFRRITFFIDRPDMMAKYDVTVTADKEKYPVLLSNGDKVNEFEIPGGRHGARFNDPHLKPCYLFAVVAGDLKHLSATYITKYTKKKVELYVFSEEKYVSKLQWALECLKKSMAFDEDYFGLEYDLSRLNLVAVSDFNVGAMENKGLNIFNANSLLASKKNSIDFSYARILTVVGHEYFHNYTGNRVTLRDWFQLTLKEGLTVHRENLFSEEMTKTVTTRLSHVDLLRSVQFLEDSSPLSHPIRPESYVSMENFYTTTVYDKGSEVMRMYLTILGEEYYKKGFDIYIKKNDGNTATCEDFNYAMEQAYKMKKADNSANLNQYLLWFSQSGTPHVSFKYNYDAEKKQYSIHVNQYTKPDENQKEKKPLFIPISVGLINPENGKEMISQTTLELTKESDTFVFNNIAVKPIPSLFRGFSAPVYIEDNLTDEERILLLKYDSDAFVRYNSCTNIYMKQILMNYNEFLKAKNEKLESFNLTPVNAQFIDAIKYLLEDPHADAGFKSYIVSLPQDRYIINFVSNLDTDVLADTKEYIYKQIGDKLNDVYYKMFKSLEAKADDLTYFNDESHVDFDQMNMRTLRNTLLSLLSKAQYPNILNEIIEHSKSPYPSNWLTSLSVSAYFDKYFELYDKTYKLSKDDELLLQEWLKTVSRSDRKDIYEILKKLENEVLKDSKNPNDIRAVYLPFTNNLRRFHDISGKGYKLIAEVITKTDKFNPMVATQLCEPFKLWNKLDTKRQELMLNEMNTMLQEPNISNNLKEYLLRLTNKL
# Salmon testes DNA = experiment: acridine orange-DNA binding displacement – biochemical, fluorescence polarization, cherry-picked samples, set 2, artefact control for KSHV LANA DNA-binding inhibitor project, dose response (AID 504727); parameters: species or system Salmonidae
# HeLa = experiment: viability loss in HeLa cells – cell-based, 24 h, cherry-picked samples, cytotoxicity control, dose response (AID 504726); assay type: functional; conditions: Homo sapiens;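 further: potency for cytotoxicity as loss of luminescence signal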
# [2] = molecular target: Voltage-gated N-type calcium channel alpha-1B subunit/Amyloid beta A4 precursor protein-binding family A member 1 (Homo sapiens, UniProt Q00975+Q02410); assay type: protein assay
# [3] = molecular target: T2, Rac GTPase-activating protein 1 (Homo sapiens, UniProt Q9H0H5); experiment: blockers of MgcRacGAP-driven Rac1 GTP hydrolysis – biochemical, ADP Hunter fluorescence, primary and confirmatory, confirmation (AID 624330); assay type: functional
# T2 sequence (Q9H0H5 whole entry): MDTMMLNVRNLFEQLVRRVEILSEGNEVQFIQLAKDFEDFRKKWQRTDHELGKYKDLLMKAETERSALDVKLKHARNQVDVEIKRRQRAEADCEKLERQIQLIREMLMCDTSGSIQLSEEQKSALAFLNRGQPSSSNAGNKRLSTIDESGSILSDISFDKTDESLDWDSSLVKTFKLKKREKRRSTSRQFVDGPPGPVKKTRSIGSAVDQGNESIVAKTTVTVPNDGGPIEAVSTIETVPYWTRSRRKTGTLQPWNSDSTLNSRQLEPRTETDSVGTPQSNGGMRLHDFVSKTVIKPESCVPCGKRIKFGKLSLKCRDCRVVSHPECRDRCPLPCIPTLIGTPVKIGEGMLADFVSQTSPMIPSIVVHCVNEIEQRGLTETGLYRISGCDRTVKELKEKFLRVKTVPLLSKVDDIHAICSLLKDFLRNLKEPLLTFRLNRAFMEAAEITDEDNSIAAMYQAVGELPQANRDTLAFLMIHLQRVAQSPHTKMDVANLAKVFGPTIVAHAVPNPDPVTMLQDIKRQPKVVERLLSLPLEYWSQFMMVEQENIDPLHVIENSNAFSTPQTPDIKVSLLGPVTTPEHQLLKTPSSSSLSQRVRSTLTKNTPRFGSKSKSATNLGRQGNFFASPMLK
# [4] = molecular target: Glutathione-S-transferase (Schistosoma japonicum, UniProt Q26513); experiment: GST-antibody interaction or FRET quenching – biochemical, TR-FRET, artefact control for Vif-APOBEC3G degradation inhibitor project, dose response (AID 1117362); assay type: functional
# Protein Tat = molecular target: T3, Protein Tat (Human immunodeficiency virus type 1 group M subtype B (isolate HXB2)(HIV-1), UniProt P04608); assay type: functional;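 further: tat binding to TAR RNA read out by fluorescence polarization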
# T3 sequence (P04608 whole entry): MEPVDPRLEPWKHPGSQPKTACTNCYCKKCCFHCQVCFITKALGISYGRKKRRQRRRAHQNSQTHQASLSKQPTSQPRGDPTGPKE
# Lysine-specific demethylase 4C, sequence (Q9H3R0 whole entry): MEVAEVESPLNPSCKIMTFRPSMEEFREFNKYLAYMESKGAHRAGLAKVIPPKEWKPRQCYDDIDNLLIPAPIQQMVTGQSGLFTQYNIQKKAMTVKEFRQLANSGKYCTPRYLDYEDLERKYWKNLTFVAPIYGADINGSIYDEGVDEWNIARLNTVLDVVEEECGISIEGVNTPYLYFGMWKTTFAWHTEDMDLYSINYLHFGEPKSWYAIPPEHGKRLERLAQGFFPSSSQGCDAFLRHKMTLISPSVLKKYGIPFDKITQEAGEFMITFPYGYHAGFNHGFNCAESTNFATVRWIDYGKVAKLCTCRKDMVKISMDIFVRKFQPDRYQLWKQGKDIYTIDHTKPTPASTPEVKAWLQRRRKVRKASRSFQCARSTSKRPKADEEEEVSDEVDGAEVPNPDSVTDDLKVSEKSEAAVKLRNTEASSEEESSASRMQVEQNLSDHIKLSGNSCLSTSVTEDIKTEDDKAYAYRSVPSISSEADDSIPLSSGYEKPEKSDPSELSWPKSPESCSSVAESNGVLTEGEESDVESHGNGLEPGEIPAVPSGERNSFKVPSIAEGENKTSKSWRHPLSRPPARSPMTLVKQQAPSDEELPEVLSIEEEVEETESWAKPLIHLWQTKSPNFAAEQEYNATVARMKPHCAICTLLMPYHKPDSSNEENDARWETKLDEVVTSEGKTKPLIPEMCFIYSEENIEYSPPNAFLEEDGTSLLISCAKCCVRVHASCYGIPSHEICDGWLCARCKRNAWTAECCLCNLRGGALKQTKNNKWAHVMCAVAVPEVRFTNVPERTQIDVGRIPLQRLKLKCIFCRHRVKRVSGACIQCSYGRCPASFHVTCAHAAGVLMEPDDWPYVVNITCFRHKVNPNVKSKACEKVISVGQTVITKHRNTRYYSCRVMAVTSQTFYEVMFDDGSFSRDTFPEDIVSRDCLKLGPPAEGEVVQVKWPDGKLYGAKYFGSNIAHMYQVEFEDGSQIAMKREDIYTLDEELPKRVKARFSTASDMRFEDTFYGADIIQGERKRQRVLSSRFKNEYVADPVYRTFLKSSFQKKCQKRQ
# Glutathione-S-transferase, sequence (Q26513 whole entry): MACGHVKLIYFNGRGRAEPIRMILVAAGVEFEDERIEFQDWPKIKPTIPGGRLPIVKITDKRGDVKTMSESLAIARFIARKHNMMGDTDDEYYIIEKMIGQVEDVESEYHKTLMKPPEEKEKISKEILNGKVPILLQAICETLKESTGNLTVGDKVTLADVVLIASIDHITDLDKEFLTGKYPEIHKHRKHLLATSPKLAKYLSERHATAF
# Voltage-gated N-type calcium channel alpha-1B subunit/Amyloid beta A4 precursor protein-binding family A member 1, sequence (Q00975 whole entry): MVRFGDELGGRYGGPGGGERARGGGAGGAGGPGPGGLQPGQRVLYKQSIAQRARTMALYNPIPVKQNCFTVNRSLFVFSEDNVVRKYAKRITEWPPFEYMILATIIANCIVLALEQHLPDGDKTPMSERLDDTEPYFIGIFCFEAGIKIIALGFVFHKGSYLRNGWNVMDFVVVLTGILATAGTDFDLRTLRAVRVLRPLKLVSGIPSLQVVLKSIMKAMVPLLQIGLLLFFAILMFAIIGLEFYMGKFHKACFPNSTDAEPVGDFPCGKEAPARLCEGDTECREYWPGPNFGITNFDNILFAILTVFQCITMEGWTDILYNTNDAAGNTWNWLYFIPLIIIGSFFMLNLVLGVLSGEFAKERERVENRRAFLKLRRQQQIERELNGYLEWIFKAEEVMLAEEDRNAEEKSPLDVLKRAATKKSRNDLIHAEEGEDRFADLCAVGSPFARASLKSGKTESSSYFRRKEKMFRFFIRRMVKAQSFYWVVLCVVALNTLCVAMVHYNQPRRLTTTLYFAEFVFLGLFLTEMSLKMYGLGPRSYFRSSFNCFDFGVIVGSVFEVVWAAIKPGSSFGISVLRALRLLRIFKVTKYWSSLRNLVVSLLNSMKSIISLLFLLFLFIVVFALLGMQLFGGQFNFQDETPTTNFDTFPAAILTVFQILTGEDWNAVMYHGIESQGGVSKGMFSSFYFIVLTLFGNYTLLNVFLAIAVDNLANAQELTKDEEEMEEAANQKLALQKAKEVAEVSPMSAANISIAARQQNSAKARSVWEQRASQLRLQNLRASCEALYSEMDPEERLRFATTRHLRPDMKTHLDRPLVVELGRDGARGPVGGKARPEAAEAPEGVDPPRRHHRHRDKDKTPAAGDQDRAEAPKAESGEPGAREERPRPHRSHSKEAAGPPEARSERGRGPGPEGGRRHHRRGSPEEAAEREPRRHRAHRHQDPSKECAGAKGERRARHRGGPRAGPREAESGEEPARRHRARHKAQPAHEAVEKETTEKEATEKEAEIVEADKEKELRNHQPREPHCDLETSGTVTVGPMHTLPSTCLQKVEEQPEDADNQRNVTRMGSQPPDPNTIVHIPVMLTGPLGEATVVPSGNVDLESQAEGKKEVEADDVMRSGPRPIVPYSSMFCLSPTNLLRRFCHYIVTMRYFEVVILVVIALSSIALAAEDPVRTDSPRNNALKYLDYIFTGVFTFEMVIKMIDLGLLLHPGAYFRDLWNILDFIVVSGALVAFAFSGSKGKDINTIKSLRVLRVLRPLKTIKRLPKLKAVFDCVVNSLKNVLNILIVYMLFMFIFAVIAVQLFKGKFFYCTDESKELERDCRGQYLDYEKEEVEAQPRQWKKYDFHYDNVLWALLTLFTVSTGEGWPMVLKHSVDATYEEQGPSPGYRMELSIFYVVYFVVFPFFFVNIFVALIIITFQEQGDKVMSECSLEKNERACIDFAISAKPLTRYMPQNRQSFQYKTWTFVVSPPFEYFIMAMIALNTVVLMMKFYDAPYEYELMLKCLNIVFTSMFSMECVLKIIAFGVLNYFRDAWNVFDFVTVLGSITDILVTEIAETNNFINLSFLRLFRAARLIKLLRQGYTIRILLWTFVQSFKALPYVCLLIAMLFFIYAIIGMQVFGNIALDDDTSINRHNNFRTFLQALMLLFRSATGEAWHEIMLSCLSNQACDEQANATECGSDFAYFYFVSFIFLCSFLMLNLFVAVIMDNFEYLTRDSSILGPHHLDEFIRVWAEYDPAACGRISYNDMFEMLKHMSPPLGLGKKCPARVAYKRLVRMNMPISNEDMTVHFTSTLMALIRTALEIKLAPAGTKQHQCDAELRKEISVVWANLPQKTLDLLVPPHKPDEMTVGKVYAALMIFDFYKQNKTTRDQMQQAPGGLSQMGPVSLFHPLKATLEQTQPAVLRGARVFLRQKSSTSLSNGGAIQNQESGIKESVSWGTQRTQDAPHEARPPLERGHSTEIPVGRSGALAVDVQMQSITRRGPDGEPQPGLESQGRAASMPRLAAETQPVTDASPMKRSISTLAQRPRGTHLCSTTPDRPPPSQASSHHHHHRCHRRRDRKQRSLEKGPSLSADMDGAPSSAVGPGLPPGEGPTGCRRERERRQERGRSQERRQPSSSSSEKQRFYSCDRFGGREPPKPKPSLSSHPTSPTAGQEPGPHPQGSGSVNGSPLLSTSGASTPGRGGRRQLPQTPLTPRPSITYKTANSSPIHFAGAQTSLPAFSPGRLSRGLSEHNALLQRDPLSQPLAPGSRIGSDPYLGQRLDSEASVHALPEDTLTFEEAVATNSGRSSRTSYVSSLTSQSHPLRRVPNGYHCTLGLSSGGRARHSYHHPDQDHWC
# Voltage-gated N-type calcium channel alpha-1B subunit/Amyloid beta A4 precursor protein-binding family A member 1, sequence (Q02410 whole entry): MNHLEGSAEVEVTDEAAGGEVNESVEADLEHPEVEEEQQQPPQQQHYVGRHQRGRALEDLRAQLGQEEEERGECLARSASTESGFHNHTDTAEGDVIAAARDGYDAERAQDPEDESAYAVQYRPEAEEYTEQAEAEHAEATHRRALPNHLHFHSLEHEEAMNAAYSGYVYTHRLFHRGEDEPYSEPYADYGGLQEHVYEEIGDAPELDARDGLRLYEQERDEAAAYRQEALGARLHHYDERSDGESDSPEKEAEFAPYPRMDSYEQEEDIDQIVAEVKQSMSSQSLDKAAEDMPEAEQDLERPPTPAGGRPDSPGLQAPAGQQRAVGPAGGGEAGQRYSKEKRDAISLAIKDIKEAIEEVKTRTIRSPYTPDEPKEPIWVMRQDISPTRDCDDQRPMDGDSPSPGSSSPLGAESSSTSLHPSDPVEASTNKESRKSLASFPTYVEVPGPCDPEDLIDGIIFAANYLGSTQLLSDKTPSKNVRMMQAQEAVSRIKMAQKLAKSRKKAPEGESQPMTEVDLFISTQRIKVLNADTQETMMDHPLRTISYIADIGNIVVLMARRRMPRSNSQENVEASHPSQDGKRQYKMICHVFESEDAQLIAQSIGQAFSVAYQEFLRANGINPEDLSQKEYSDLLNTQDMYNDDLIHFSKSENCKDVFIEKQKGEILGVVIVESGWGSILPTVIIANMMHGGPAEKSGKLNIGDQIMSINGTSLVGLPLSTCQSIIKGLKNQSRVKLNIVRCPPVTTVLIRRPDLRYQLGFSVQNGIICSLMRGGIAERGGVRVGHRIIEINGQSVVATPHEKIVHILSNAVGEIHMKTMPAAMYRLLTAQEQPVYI
compound,measurement,setting,value
Cc1cc(C)c(S(=O)(=O)Nc2cc(SCC(=O)O)c(O)c3ccccc23)cc1C,AC50,[1],13 µM (active)
same,IC50,Aminopeptidase N,48.5 µM (active)
O=C(O)c1cc(N2N=C(C(F)(F)F)/C(=C/C=C/c3ccco3)C2=O)ccc1Cl,AC50,Salmon testes DNA,126 µM (active)
same,AC50,HeLa,24.9 µM (active)
same,IC50,[2],11.7 µM (active)
same,IC50,[3],10.6 µM (active)
CNCc1ccccc1Sc1ccc(O)c(O)c1,IC50,[4],16 µM (active)
same,IC50,Protein Tat,> 100 µM (active)

# From ChEMBL document CHEMBL1201862, “PubChem BioAssay data set” (2004)
